Assay results: patent US20160238590A1, “COMPOSITIONS AND METHODS RELATED TO OAT SENSITIVITY” (IMMUSANT, INC., priority 2013, published 2016)
[ ]: non-standard residue; d: D form. pGlu = O=C1CC[C@@H](C(=O)O)N1

Experiments:
Type in all cases: cell-based, human
PBMC [1] = assay: IFN-γ ELISpot on PBMC of CD patients after 3-day barley challenge; details: for response following barley challenge: 3 oats responders, titrating concentrations (FIG. 1b); for patients responding following pure barley challenge: 3 patients that had previously responded to avenin peptides following oats challenge; for responses compared with DQ2.5-ave-1c responses: third patient; for responses compared with DQ2.5-ave-1c responses / responses compared with DQ2.5-hor-3a responses: after barley challenge (FIG. 1b); for responses compared with DQ2.5-hor-3a responses: 2/3 patients
In short: (§1)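 PBMC from HLA-DQ2.5+/DQ8+ biopsy-proven coeliac patients on gluten-free diet ≥4 weeks, collected on day 6 after starting a 3-day oral challenge (oats 100 g/day, barley 150 g/day, or wheat/barley/rye muffins 22-25 g each daily). Responses to avenin, hordein and gluten peptide libraries, some deamidated or tTG-treated, measured by IFN-γ ELISpot.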

PBMC [2] = assay: IFN-γ ELISpot on PBMC of CD patients after combined wheat, barley, and rye challenge
Excerpt: Australian Caucasian HLA-DQ2.5^+ and/or HLA-DQ8^+ CD subjects were recruited by advertisement in the Coeliac Society of Victoria newsletter and all had biopsy-proven CD conforming to ESPGHAN criteria. Patients had been on strict gluten free diet for at least 4 weeks prior to commencing grain challenge. Patients underwent 3-day grain challenge with oats, barley, or combined wheat, barley, and rye muffins, and 6 days after commencement, blood was collected. Day 0 responses were not observed in the selection of patients tested, as described previously^8.
Oats challenge consisted of 100 g dry weight daily of one of three commercial brands of oats: one not tested for wheat contamination (Uncle Toby's; Oats #1), and two shown by R5 ELISA to contain less than 20 ppm wheat gluten (Tilquhilie Pudding; Oats #2 and Freedom Food; Oats #3). Barley challenge consisted of pearl barley (Ward McKenzie) cooked into a risotto (150 g dry weight daily) and the wheat challenge consisted of four 50 g slices of wheat bread daily (Baker's Delight white loaf cut to toasting thickness). The combined wheat, barley, and rye challenge consisted of muffins baked with wheat flour (White Wings), barley flour (Four Leaf Milling), and rye flour (Four Leaf Milling; 22-25 g dry weight each daily). A symptom diary based on a […] Likert scale was completed by participants daily from baseline until day 6.
Two avenin peptide libraries were utilized for epitope screening. These were designed using avenin sequences from GenBank and a customized algorithm, as previously described^9. The initial library consisted of 199 screening-grade 20 mers including all possible 12 mers (Mimotopes). This library was screened with and without tTG pre-treatment. The second library consisted of additional avenin sequences that were synthesized with glutamate substitution at sites predicted to be deamidated by published algorithms^10, 11 removing the requirement for tTG treatment. This library contained 369 screening-grade 20 mers, including all possible 12 mers (Pepscan). The second round avenin library contained wild-type and deamidated versions of the most immunogenic sequences (25 high quality 16 mers from Mimotopes). High quality peptides containing previously described immunogenic sequences from wheat, barley, and rye were used to test for cross-reactivity^8 (Pepscan). High quality hordein and avenin peptides for TCC testing and biochemical studies were ordered from Pepscan, Mimotopes, or GL Biochem.
Peripheral blood mononuclear cells (PBMC) were isolated from heparinized whole blood using Ficoll-Paque™ Plus density-gradient centrifugation (GE Healthcare). IFN-γ ELISpot (Mabtech) was set up as previously described^8.

Patient 10 TCC-01 = assay: IFN-γ ELISpot with T cell clone; details: TCC Patient 10 TCC-01, peptide 50 μg/mL
In short: (§2)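 Clone specificity was assessed by IFN-γ ELISpot, using irradiated HLA-matched PBMC for antigen presentation.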

Patient 14 TCC-01 = assay: IFN-γ ELISpot with T cell clone; details: TCC Patient 14 TCC-01, peptide 50 μg/mL
In short: as §2

Patient 2 TCC-01 = assay: IFN-γ ELISpot with T cell clone
In short: as §2

Patient 2 TCC-02 = assay: IFN-γ ELISpot with T cell clone; details: TCC Patient 2 TCC-02, peptide 25 μg/mL
In short: as §2

Patient 2 TCC-03 = assay: IFN-γ ELISpot with T cell clone; details: TCC Patient 2 TCC-03, peptide 25 μg/mL
In short: as §2

Patient 6 TCC-01 = assay: IFN-γ ELISpot with T cell clone
In short: as §2

Patient 8 TCC-01 = assay: IFN-γ ELISpot with T cell clone; details: TCC Patient 8 TCC-01, peptide 25 μg/mL
In short: as §2

Patient 9 TCC-01 = assay: IFN-γ ELISpot with T cell clone; details: TCC Patient 9 TCC-01, peptide 50 μg/mL
In short: as §2

Patient 9 TCC-02 = assay: IFN-γ ELISpot with T cell clone; details: TCC Patient 9 TCC-02, peptide 50 μg/mL
In short: as §2

PBMC [3] = assay: IFN-γ ELISpot on PBMC of CD patients on day 6 after 3-day oats challenge
In short: as §1

[4] = Patient 1, peptide 25 μg/ml, after barley challenge
[5] = Patient 2, peptide 25 μg/ml, after barley challenge
[6] = Patient 3, peptide 25 μg/ml, after barley challenge
[7] = 19 HLA-DQ2.5+ CD patients, peptide 10 μg/mL (FIG. 1a)
[8] = TCC Patient 2 TCC-01, peptide 25 μg/mL
[9] = TCC Patient 2 TCC-01, peptide 50 μg/mL
[10] = TCC Patient 6 TCC-01, peptide 25 μg/mL
[11] = TCC Patient 6 TCC-01, peptide 50 μg/mL

| Sequence | response following barley challenge (PBMC [1]) | patients responding following pure barley challenge (PBMC [1]) | IFN-γ ELISpot response (raw SFU) (PBMC [1]; [4]) [SFU] | significant SFU as a percentage of maximal peptide SFU (PBMC [1]; [4]) | IFN-γ ELISpot response (raw SFU) (PBMC [1]; [5]) [SFU] | significant SFU as a percentage of maximal peptide SFU (PBMC [1]; [5]) | IFN-γ ELISpot response (raw SFU) (PBMC [1]; [6]) [SFU] | significant SFU as a percentage of maximal peptide SFU (PBMC [1]; [6]) | IFN-γ ELISpot response (raw SFU) (Patient 10 TCC-01) [SFU] | IFN-γ ELISpot response (raw SFU) (Patient 14 TCC-01) [SFU] | IFN-γ ELISpot response (SFU) (Patient 2 TCC-01; [8]) | IFN-γ ELISpot response (raw SFU) (Patient 2 TCC-01; [9]) [SFU] | IFN-γ ELISpot response (SFU) (Patient 2 TCC-02) | IFN-γ ELISpot response (SFU) (Patient 2 TCC-03) | IFN-γ ELISpot response (SFU) (Patient 6 TCC-01; [10]) | IFN-γ ELISpot response (raw SFU) (Patient 6 TCC-01; [11]) [SFU] | IFN-γ ELISpot response (SFU) (Patient 8 TCC-01) | significant SFU as a percentage of maximal peptide SFU (Patient 8 TCC-01) | IFN-γ ELISpot response (raw SFU) (Patient 9 TCC-01) [SFU] | IFN-γ ELISpot response (raw SFU) (Patient 9 TCC-02) [SFU] | further results |
| --- | --- | --- | --- | --- | --- | --- | --- | --- | --- | --- | --- | --- | --- | --- | --- | --- | --- | --- | --- | --- | --- |
| PEQPIPEQPQPYPQQ | responded to all three peptides to varying degrees | All three patients responded | 317 | *** (***: >70%) | 162 | *** (***: >70%) | 142 | *** (***: >70%) | 3 | 48 | 1 | 1 | 1 | 156 | 107 | 86 | 143 | *** (***: >70%) | 4 | 2 | responses compared with DQ2.5-ave-1c responses (PBMC [1]): slightly lower; patients that did not respond to either peptide (PBMC [2]; [7]): 9 patients; patients that responded to both peptides (PBMC [2]; [7]): 8 patients; patients that responded to the hordein peptide but not the avenin peptide (PBMC [2]; [7]): 2 patients; responses compared with AAB32025 (7-21) [Q7 to pyroE, Q15 to E, and Q21 to Q-amide] responses (PBMC [2]; combined wheat, barley, and rye challenge): generally higher; significant SFU as a percentage of maximal peptide SFU (Patient 14 TCC-01): ** (**: 40-70%); significant SFU as a percentage of maximal peptide SFU (Patient 2 TCC-03): *** (***: >70%); significant SFU as a percentage of maximal peptide SFU (Patient 6 TCC-01; [10]): *** (***: >70%); significant SFU as a percentage of maximal peptide SFU (Patient 6 TCC-01; [11]): *** (***: >70%) |
| QPQPYPEQPQPYP ([pGlu]PQPYPEQPQPYP-NH2; SMILES NC(=O)CC[C@H](NC(=O)[C@H](CCC(=O)O)NC(=O)[C@@H]1CCCN1C(=O)[C@H](Cc1ccc(O)cc1)NC(=O)[C@@H]1CCCN1C(=O)[C@H](CCC(N)=O)NC(=O)[C@@H]1CCCN1C(=O)[C@@H]1CCC(=O)N1)C(=O)N1CCC[C@H]1C(=O)N[C@@H](CCC(N)=O)C(=O)N1CCC[C@H]1C(=O)N[C@@H](Cc1ccc(O)cc1)C(=O)N1CCC[C@H]1C(N)=O) | responded to all three peptides to varying degrees |  |  |  |  |  |  |  | 3 | 27 | 232 | 316 | 1 | 132 | 86 | 52 | 175 | *** (***: >70%) | 1 | 0 | responses compared with DQ2.5-hor-3a responses (PBMC [1]): almost equivalent; responses compared with DQ2.5-ave-1c responses (PBMC [1]): equivalent; significant SFU as a percentage of maximal peptide SFU (Patient 14 TCC-01): * (*: 20-40%); significant SFU as a percentage of maximal peptide SFU (Patient 2 TCC-01; [8]): *** (***: >70%); significant SFU as a percentage of maximal peptide SFU (Patient 2 TCC-01; [9]): *** (***: >70%); significant SFU as a percentage of maximal peptide SFU (Patient 2 TCC-03): *** (***: >70%); significant SFU as a percentage of maximal peptide SFU (Patient 6 TCC-01; [10]): *** (***: >70%); significant SFU as a percentage of maximal peptide SFU (Patient 6 TCC-01; [11]): ** (**: 40-70%) |
| YQPYPEQEQPILQQ | responded to all three peptides to varying degrees | All three patients responded | 59 | ^^ (^^: 10-20%) | 204.5 | *** (***: >70%) | 26 | ^^ (^^: 10-20%) | 5 | 18 | 238 | 300 | 145 | 1 | 3 | 2 | 114 | ** (**: 40-70%) | 4 | 2 | response following oats challenge (PBMC [3]; three additional patients that responded to the peptide after barley challenge): did not respond; response after previous oats challenge (PBMC [3]; three patients that responded after the combined grain challenge): no responses; responses compared with DQ2.5-hor-3a responses (PBMC [1]): lower; patients with lower polyclonal T cell responses compared with 1103203A (31-45) peptide (PBMC [1]; after barley challenge): 2/3; patients that did not respond to either peptide (PBMC [2]; [7]): 9 patients; patients that responded to both peptides (PBMC [2]; [7]): 8 patients; significant SFU as a percentage of maximal peptide SFU (Patient 2 TCC-01; [8]): *** (***: >70%); significant SFU as a percentage of maximal peptide SFU (Patient 2 TCC-01; [9]): *** (***: >70%); significant SFU as a percentage of maximal peptide SFU (Patient 2 TCC-02): ** (**: 40-70%) |
